Test results from US9657071B2, “IgE peptide vaccine” (NIPPON ZENYAKU KOGYO CO., LTD., priority 2012, dated 2017).

Key:
dog IgE = experiment: Subcutaneous administration test using rats: IgG antibody against dog IgE (ELISA); assay type: in vivo; details: 50 μg three times, no adjuvant
Protocol: The dog IgE protein (Bethyl Laboratories, Inc.; P115), the mouse IgE protein (BD Biosciences, San Jose, Calif., USA), and the human IgE protein (Athens Research And Technology, Inc.; 16-16-090705-ML) were each prepared at 1 μg/mL, 500 ng/mL, 250 ng/mL, 125 ng/mL, 62.5 ng/mL, 31.2 ng/mL, 15.6 ng/mL, 7.8 ng/mL, 3.9 ng/mL, 1.95 ng/mL, and 0.97 ng/mL in an immobilization buffer (0.05 M carbonate buffer, pH 9.6), then added at a concentration of 100 μL/well to an ELISA plate, and left overnight at 4° C. The immobilization plate was washed once with PBS-T (0.05%). A blocking solution (4× Block Ace, Snow Brand Milk Products Co., Ltd.; UK-B80) was added thereto at a concentration of 200 μL/well. The plate was blocked by incubation at 37° C. for 1.5 hours. The serum was diluted 2000-fold with a diluent (PBS-T:Block Ace=9:1) and used. The serum of an unimmunized rat was similarly diluted and used as a negative control. […] Then, the measurement was performed using a plate reader (Bio-Rad Laboratories, Inc.; model 680) (dual: measurement: 450 nm, control: 570 nm).
This peptide was used in the immunization of rats without the use of an adjuvant, and antibody response to dog IgE was evaluated. […]
Blood was collected every 2 weeks from the administer start date. […] Serum was collected, and an IgG antibody against dog IgE was evaluated by ELISA (FIG. 16). […]

mouse IgE = experiment: Reactivity of serum of peptide-immunized rabbit with mouse IgE (ELISA); assay type: in vivo; details: 500 μg peptide + complete adjuvant s.c.
Protocol: 2 mL of the 250 μg/mL peptide (a total of 500 μg) used in Example 2 was mixed with an equal amount of a complete adjuvant (a total of 4 mL). Each rabbit was immunized with this mixture by the subcutaneous administration (amount of the peptide: 500 μg) at day 0 and weeks 2, 4, 6, and 8. Blood was collected 5 weeks after the week-8 administration (week 13 counted from day 0). Booster immunization was performed at week 14 counted from day 0, and blood was further collected 2 weeks thereafter (week 16 counted from day 0). Antibody titers in the collected blood were measured by ELISA. The serum of a rabbit that received no peptide was used as a control.
ELISA was performed by the following method: each […] recombinant CH3 solution of dog IgE, human IgE, mouse IgE, dog IgG, and cat IgE was immobilized at a concentration of 100 μL/well (100 ng/well) to a plate. The serum collected from the immunized rabbit was used (×200 to ×102400) as a primary antibody. An enzyme-labeled anti-rabbit IgG antibody (Zymed Laboratories Inc.) was used as a secondary antibody.

Sequence	level of the rat IgG antibody against dog IgE (dog IgE; intravenous)	level of the rat IgG antibody against dog IgE (dog IgE; subcutaneous)	response of immobilized mouse IgE to peptide-administered rabbit serum (mouse IgE)
KKTSVSASQWYTKHHNNATT (listed as Mus musculus) [M4-7-11]	confirmed to elevate	confirmed to elevate	–
QEKKTSVSASQWYTKHHNNATTSIT (listed as Mus musculus) [MOUSE CH3-4-17-11]	–	–	responded
